What was measured:
HCV NS5B = target: T1, HCV NS5B (Hepatitis C virus genotype 1b, UniProt Q9WMX2); assay: HCV NS5B RdRp enzyme assay (standard / modified); assay type: biochemical; conditions: HCV RdRp genotype 1b enzyme; read-out: IC50
T1 construct: The protein was expressed with an 18 amino acid C-terminal truncation to enhance the solubility; made in house; host or cells: E. coli BL21 (DE3)
In short: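 NS5B genotype 1b, 18-aa C-terminal truncation, E. coli-expressed; polyA template with biotinylated oligo-dT12 primer, 3H-UTP 0.29 μM, 30° C, SPA read-out in 20 mM Hepes pH 7.5, 2% DMSO. Standard: 28 nM enzyme, 6 nM template, 180 nM primer, 60 min; modified: 14 nM enzyme, 0.2 nM template, 20 nM bead-precaptured primer, 4 h. IC50 from seven concentrations.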

HCV replicon cells = assay: HCV replicon FRET / luciferase assay; assay type: cell-based; conditions: Hepatitis C virus; HCV replicon cells, FRET or luciferase readout; read-out: EC50
In short: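 Trypsinized replicon cells were seeded with compound titrations and incubated at 37 °C for various times. Alamar blue was added to gauge toxicity. Plates were then rinsed and either lysed with FRET peptide reagent for kinetic fluorescence reading or switched to phenol red-free DMEM for luciferase measurement.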

T1 sequence (Q9WMX2 2420-2992): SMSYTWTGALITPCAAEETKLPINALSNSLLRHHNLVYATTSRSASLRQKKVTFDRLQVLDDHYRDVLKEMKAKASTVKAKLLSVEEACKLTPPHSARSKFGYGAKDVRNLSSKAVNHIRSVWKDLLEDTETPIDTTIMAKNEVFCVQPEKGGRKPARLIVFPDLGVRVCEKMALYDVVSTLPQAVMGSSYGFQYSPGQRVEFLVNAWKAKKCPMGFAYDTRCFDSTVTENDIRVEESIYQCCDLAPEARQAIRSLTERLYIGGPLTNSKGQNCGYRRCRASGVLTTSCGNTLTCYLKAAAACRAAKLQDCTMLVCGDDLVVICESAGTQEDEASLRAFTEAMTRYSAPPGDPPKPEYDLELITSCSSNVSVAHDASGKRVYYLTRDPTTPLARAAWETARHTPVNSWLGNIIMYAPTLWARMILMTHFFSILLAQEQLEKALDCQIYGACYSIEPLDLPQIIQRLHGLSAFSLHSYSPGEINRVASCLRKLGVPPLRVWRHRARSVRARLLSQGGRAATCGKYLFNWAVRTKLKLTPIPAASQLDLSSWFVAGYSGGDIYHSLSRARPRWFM

SMILES	IC50 (HCV NS5B)	EC50 (HCV replicon cells)
COc1ccc2c(c1)C=C(c1ccsc1C(=O)N1CCOCC1)Cn1c-2c(C2CCCCC2)c2ccc(C(=O)NS(=O)(=O)N(C)C)cc21	0.001 to 0.5 µM	0.001 to 0.5 µM
COc1ccc2c(c1)C=C(c1c(C(=O)N3CCOCC3)cnn1C(C)C)Cn1c-2c(C2CCCCC2)c2ccc(C(=O)O)cc21	0.001 to 0.5 µM	0.001 to 0.5 µM
COc1ccc2c(c1)C=C(c1c(C(=O)N3CCOCC3)cnn1C(C)C)Cn1c-2c(C2CCCCC2)c2ccc(C(=O)NS(=O)(=O)N(C)C)cc21	0.001 to 0.5 µM	0.001 to 0.5 µM
COC(=O)c1ncoc1C1=Cc2cc(OC)ccc2-c2c(C3CCCCC3)c3ccc(C(=O)OC(C)(C)C)cc3n2C1	> 0.04 µM	> 0.04 µM
COc1ccc2c(c1)C=C(c1ocnc1C(=O)O)Cn1c-2c(C2CCCCC2)c2ccc(C(=O)OC(C)(C)C)cc21	> 0.04 µM	> 0.04 µM
COc1ccc2c(c1)C=C(c1c(C(=O)O)cnn1C)Cn1c-2c(C2CCCCC2)c2ccc(C(=O)O)cc21	0.001 to 0.5 µM	> 0.04 µM
COc1ccc2c(c1)C=C(c1c(C(=O)N3C[C@@H](C)N(C)[C@@H](C)C3)cnn1C)Cn1c-2c(C2CCCCC2)c2ccc(C(=O)NS(=O)(=O)N3CCOCC3)cc21	0.001 to 0.5 µM	0.001 to 0.5 µM
COc1ccc2c(c1)C=C(c1c(C(=O)N3CCC(N(C)C)C3)cnn1C)Cn1c-2c(C2CCCCC2)c2ccc(C(=O)NS(=O)(=O)C(C)C)cc21 (centres unmarked)	0.001 to 0.5 µM	0.001 to 0.5 µM
COc1ccc2c(c1)C=C(c1c(C(=O)N3CCOCC3)cnn1C)Cn1c-2c(C2CCCCC2)c2ccc(C(=O)NS(=O)(=O)C(C)C)cc21	0.001 to 0.5 µM	0.001 to 0.5 µM
COc1ccc2c(c1)C=C(c1c(C(=O)N3CCN4CCCC4C3)cnn1C)Cn1c-2c(C2CCCCC2)c2ccc(C(=O)NS(=O)(=O)C(C)C)cc21 (centres unmarked)	0.001 to 0.5 µM	0.001 to 0.5 µM
CCN1C[C@@H]2C[C@H]1CN2C(=O)c1cnn(C)c1C1=Cc2cc(OC)ccc2-c2c(C3CCCCC3)c3ccc(C(=O)NS(=O)(=O)C(C)C)cc3n2C1	0.001 to 0.5 µM	0.001 to 0.5 µM
COc1ccc2c(c1)C=C(c1c(C(=O)N3CCN(C)CC3)cnn1C)Cn1c-2c(C2CCCCC2)c2ccc(C(=O)NS(=O)(=O)C(C)C)cc21	0.001 to 0.5 µM	0.001 to 0.5 µM
COc1ccc2c(c1)C=C(c1c(C(=O)N3CCN(C(C)C)CC3)cnn1C)Cn1c-2c(C2CCCCC2)c2ccc(C(=O)NS(=O)(=O)C(C)C)cc21	0.001 to 0.5 µM	0.001 to 0.5 µM
COCCN(C(=O)c1cnn(C)c1C1=Cc2cc(OC)ccc2-c2c(C3CCCCC3)c3ccc(C(=O)NS(=O)(=O)C(C)C)cc3n2C1)C(C)C	0.001 to 0.5 µM	0.001 to 0.5 µM
COc1ccc2c(c1)C=C(c1c(C(=O)N3CCC(N4CCCC4)CC3)cnn1C)Cn1c-2c(C2CCCCC2)c2ccc(C(=O)NS(=O)(=O)C(C)C)cc21	0.001 to 0.5 µM	0.001 to 0.5 µM
COC[C@@H]1CN(C(=O)c2cnn(C)c2C2=Cc3cc(OC)ccc3-c3c(C4CCCCC4)c4ccc(C(=O)NS(=O)(=O)C(C)C)cc4n3C2)CCO1	0.001 to 0.5 µM	0.001 to 0.5 µM
COc1ccc2c(c1)C=C(c1c(C(=O)N3C[C@@H](C)N(C)[C@@H](C)C3)cnn1C)Cn1c-2c(C2CCCCC2)c2ccc(C(=O)NS(=O)(=O)C(C)C)cc21	0.001 to 0.5 µM	0.001 to 0.5 µM
COc1ccc2c(c1)C=C(c1c(C(=O)N3CCCC(N(C)C)C3)cnn1C)Cn1c-2c(C2CCCCC2)c2ccc(C(=O)NS(=O)(=O)C(C)C)cc21 (centres unmarked)	0.001 to 0.5 µM	0.001 to 0.5 µM
COc1ccc2c(c1)C=C(c1c(C(=O)N3C[C@@H](C)O[C@@H](C)C3)cnn1C)Cn1c-2c(C2CCCCC2)c2ccc(C(=O)NS(=O)(=O)C(C)C)cc21	0.001 to 0.5 µM	0.001 to 0.5 µM
COc1ccc2c(c1)C=C(c1c(C(=O)N(C)C)cnn1C)Cn1c-2c(C2CCCCC2)c2ccc(C(=O)NS(=O)(=O)C(C)C)cc21	0.001 to 0.5 µM	0.001 to 0.5 µM
COc1ccc2c(c1)C=C(c1c(C(=O)N(CCN(C(C)C)C(C)C)C(C)C)cnn1C)Cn1c-2c(C2CCCCC2)c2ccc(C(=O)NS(=O)(=O)C(C)C)cc21	0.001 to 0.5 µM	0.001 to 0.5 µM
COc1ccc2c(c1)C=C(c1c(C(=O)N3CCOCC3)cnn1C)Cn1c-2c(C2CCCCC2)c2ccc(C(=O)NS(=O)(=O)C3CCCC3)cc21	0.001 to 0.5 µM	0.001 to 0.5 µM
COC[C@@H]1CN(C(=O)c2cnn(C)c2C2=Cc3cc(OC)ccc3-c3c(C4CCCCC4)c4ccc(C(=O)NS(=O)(=O)C5CCCC5)cc4n3C2)CCO1	0.001 to 0.5 µM	0.001 to 0.5 µM
CCC(C)S(=O)(=O)NC(=O)c1ccc2c(C3CCCCC3)c3n(c2c1)CC(c1c(C(=O)N2CCOCC2)cnn1C)=Cc1cc(OC)ccc1-3 (centres unmarked)	0.001 to 0.5 µM	0.001 to 0.5 µM
CCC(C)S(=O)(=O)NC(=O)c1ccc2c(C3CCCCC3)c3n(c2c1)CC(c1c(C(=O)N2C[C@@H](C)O[C@@H](C)C2)cnn1C)=Cc1cc(OC)ccc1-3 (some centres unmarked)	0.001 to 0.5 µM	0.001 to 0.5 µM

SMILES	IC50 (HCV NS5B)	EC50 (HCV replicon cells)
CCC(C)S(=O)(=O)NC(=O)c1ccc2c(C3CCCCC3)c3n(c2c1)CC(c1c(C(=O)N2CC(C)N(C)C(C)C2)cnn1C)=Cc1cc(OC)ccc1-3 (centres unmarked)	0.001 to 0.5 µM	0.001 to 0.5 µM
CCC(C)S(=O)(=O)NC(=O)c1ccc2c(C3CCCCC3)c3n(c2c1)CC(c1c(C(=O)N2CCCC(N(C)C)C2)cnn1C)=Cc1cc(OC)ccc1-3 (centres unmarked)	0.001 to 0.5 µM	0.001 to 0.5 µM
CCC(C)S(=O)(=O)NC(=O)c1ccc2c(C3CCCCC3)c3n(c2c1)CC(c1c(C(=O)N2CCOC(COC)C2)cnn1C)=Cc1cc(OC)ccc1-3 (centres unmarked)	0.001 to 0.5 µM	0.001 to 0.5 µM
COc1ccc2c(c1)C=C(c1c(C(=O)N3CCOCC3)cnn1C)Cn1c-2c(C2CCCCC2)c2ccc(C(=O)NS(=O)(=O)CC(C)C)cc21	0.001 to 0.5 µM	0.001 to 0.5 µM
COc1ccc2c(c1)C=C(c1c(C(=O)N3C[C@@H](C)O[C@@H](C)C3)cnn1C)Cn1c-2c(C2CCCCC2)c2ccc(C(=O)NS(=O)(=O)CC(C)C)cc21	0.001 to 0.5 µM	0.001 to 0.5 µM
COC[C@@H]1CN(C(=O)c2cnn(C)c2C2=Cc3cc(OC)ccc3-c3c(C4CCCCC4)c4ccc(C(=O)NS(=O)(=O)CC(C)C)cc4n3C2)CCO1	0.001 to 0.5 µM	0.001 to 0.5 µM
COC[C@@H]1CN(C(=O)c2cnn(C)c2C2=Cc3cc(OC)ccc3-c3c(C4CCCCC4)c4ccc(C(=O)NS(=O)(=O)C5CCC5)cc4n3C2)CCO1	0.001 to 0.5 µM	0.001 to 0.5 µM
CCN1C[C@@H]2C[C@H]1CN2C(=O)c1cnn(C)c1C1=Cc2cc(OC)ccc2-c2c(C3CCCCC3)c3ccc(C(=O)NS(=O)(=O)C4CCC4)cc3n2C1	0.001 to 0.5 µM	0.001 to 0.5 µM
COc1ccc2c(c1)C=C(c1c(C(=O)N3CCCC(N(C)C)C3)cnn1C)Cn1c-2c(C2CCCCC2)c2ccc(C(=O)NS(=O)(=O)C3CCC3)cc21 (centres unmarked)	0.001 to 0.5 µM	0.001 to 0.5 µM
COc1ccc2c(c1)C=C(c1c(C(=O)N3CCOCC3)cnn1C)Cn1c-2c(C2CCCCC2)c2ccc(C(=O)NS(=O)(=O)C3CCC3)cc21	0.001 to 0.5 µM	0.001 to 0.5 µM
COc1ccc2c(c1)C=C(c1c(C(=O)N3CCN4CCCC4C3)cnn1C)Cn1c-2c(C2CCCCC2)c2ccc(C(=O)NS(=O)(=O)C3CCC3)cc21 (centres unmarked)	0.001 to 0.5 µM	0.001 to 0.5 µM
COc1ccc2c(c1)C=C(c1sccc1C(=O)O)Cn1c-2c(C2CCCCC2)c2ccc(C(=O)NS(=O)(=O)C(C)C)cc21	0.001 to 0.5 µM	> 0.04 µM
COc1ccc2c(c1)C=C(c1c(C(=O)N(CC3CCCO3)C(C)C)cnn1C)Cn1c-2c(C2CCCCC2)c2ccc(C(=O)NS(=O)(=O)C(C)C)cc21 (centres unmarked)	0.001 to 0.5 µM	0.001 to 0.5 µM
COc1ccc2c(c1)C=C(c1c(C(=O)N3CCOCC3)cnn1C(C)C)Cn1c-2c(C2CCCCC2)c2ccc(C(=O)NS(=O)(=O)C(C)C)cc21	0.001 to 0.5 µM	0.001 to 0.5 µM
COc1ccc2c(c1)C=C(c1c(C(=O)N3CC(C)OC(C)C3)cnn1C(C)C)Cn1c-2c(C2CCCCC2)c2ccc(C(=O)NS(=O)(=O)C(C)C)cc21 (centres unmarked)	0.001 to 0.5 µM	0.001 to 0.5 µM
CCN1C[C@@H]2CC1CN2C(=O)c1cnn(C(C)C)c1C1=Cc2cc(OC)ccc2-c2c(C3CCCCC3)c3ccc(C(=O)NS(=O)(=O)C(C)C)cc3n2C1	0.001 to 0.5 µM	0.001 to 0.5 µM
COc1ccc2c(c1)C=C(c1c(C(=O)N3C4CC3CN(C)C4)cnn1C(C)C)Cn1c-2c(C2CCCCC2)c2ccc(C(=O)NS(=O)(=O)C(C)C)cc21	0.001 to 0.5 µM	0.001 to 0.5 µM
COc1ccc2c(c1)C=C(c1c(C(=O)N3CC(C)N(C)C(C)C3)cnn1C(C)C)Cn1c-2c(C2CCCCC2)c2ccc(C(=O)NS(=O)(=O)C(C)C)cc21 (centres unmarked)	0.001 to 0.5 µM	0.001 to 0.5 µM
CCN1C[C@H]2C[C@@H]1CN2C(=O)c1cnn(C(C)C)c1C1=Cc2cc(OC)ccc2-c2c(C3CCCCC3)c3ccc(C(=O)NS(=O)(=O)CC(C)C)cc3n2C1	0.001 to 0.5 µM	0.001 to 0.5 µM
COc1ccc2c(c1)C=C(c1c(C(=O)N3C[C@@H](C)O[C@@H](C)C3)cnn1C(C)C)Cn1c-2c(C2CCCCC2)c2ccc(C(=O)NS(=O)(=O)CC(C)C)cc21	0.001 to 0.5 µM	0.001 to 0.5 µM
COc1ccc2c(c1)C=C(c1c(C(=O)N3CCOCC3)cnn1C(C)C)Cn1c-2c(C2CCCCC2)c2ccc(C(=O)NS(=O)(=O)CC(C)C)cc21	0.001 to 0.5 µM	0.001 to 0.5 µM
COC[C@@H]1CN(C(=O)c2cnn(C(C)C)c2C2=Cc3cc(OC)ccc3-c3c(C4CCCCC4)c4ccc(C(=O)NS(=O)(=O)CC(C)C)cc4n3C2)CCO1	0.001 to 0.5 µM	0.001 to 0.5 µM
COc1ccc2c(c1)C=C(c1c(C(=O)N3C[C@@H](C)N(C)[C@@H](C)C3)cnn1C(C)C)Cn1c-2c(C2CCCCC2)c2ccc(C(=O)NS(=O)(=O)CC(C)C)cc21	0.001 to 0.5 µM	0.001 to 0.5 µM
COC[C@@H]1CN(C(=O)c2cnn(C(C)C)c2C2=Cc3cc(OC)ccc3-c3c(C4CCCCC4)c4ccc(C(=O)NS(=O)(=O)C(C)C)cc4n3C2)CCO1	0.001 to 0.5 µM	0.001 to 0.5 µM

From patent US8143243B2, “Compounds for the treatment of hepatitis C” (Bristol-Myers Squibb Company, priority 2007, dated 2012)
